Laboratory results published in ChEMBL document CHEMBL3046233, “Synthesis and anticonvulsant activity of 4-(2-phenoxyphenyl)semicarbazones” (Med Chem Res, 2009).

Key:
Rattus norvegicus [1] = assay: Anticonvulsant activity in Rattus norvegicus Wistar (rat) pentylenetetrazole-induced kindling model assessed as seizure latency time at 30 mg/kg, ip administered 30 min before pentylenetetrazole challenge; type: functional; settings: route intraperitoneal
Rattus norvegicus [2] = assay: Anticonvulsant activity in Rattus norvegicus Wistar (rat) pentylenetetrazole-induced kindling model assessed as seizure time at 30 mg/kg, ip administered 30 min before pentylenetetrazole challenge; type: functional; settings: route intraperitoneal
Rattus norvegicus [3] = assay: Neurotoxicity in Rattus norvegicus Wistar (rat) at 300 mg/kg, ip by rotarod test; type: toxicity, organism-based; set-up: dose 300 mg/kg, route intraperitoneal; settings: in vivo
Rattus norvegicus [4] = assay: Anticonvulsant activity in Rattus norvegicus Wistar (rat) pentylenetetrazole-induced kindling model assessed as seizure time at 200 mg/kg, ip administered 30 min before pentylenetetrazole challenge; type: functional; settings: route intraperitoneal
Rattus norvegicus [5] = assay: Anticonvulsant activity in Rattus norvegicus Wistar (rat) pentylenetetrazole-induced kindling model assessed as seizure time at 100 mg/kg, ip administered 30 min before pentylenetetrazole challenge; type: functional; settings: route intraperitoneal
Rattus norvegicus [6] = assay: Anticonvulsant activity in Rattus norvegicus Wistar (rat) pentylenetetrazole-induced kindling model assessed as seizure latency time at 100 mg/kg, ip administered 30 min before pentylenetetrazole challenge; type: functional; settings: route intraperitoneal
Rattus norvegicus [7] = assay: Anticonvulsant activity in Rattus norvegicus Wistar (rat) pentylenetetrazole-induced kindling model assessed as seizure latency time at 200 mg/kg, ip administered 30 min before pentylenetetrazole challenge; type: functional; settings: route intraperitoneal

In the case of `C/C(=N\NC(=O)Nc1ccccc1Oc1ccccc1)c1ccccc1[N+](=O)[O-]`, the Time (Rattus norvegicus [1]) is reported as 639.2 s and the Time (Rattus norvegicus [2]) is reported as 40.6 s.

For `C/C(=N\NC(=O)Nc1ccccc1Oc1ccccc1)c1cccc([N+](=O)[O-])c1`, the Time (Rattus norvegicus [1]) was 832.2 s and the Time (Rattus norvegicus [2]) was 32.2 s.

For `C/C(=N\NC(=O)Nc1ccccc1Oc1ccccc1)c1ccc([N+](=O)[O-])cc1`, the Time (Rattus norvegicus [1]) was 404.25 s and the Time (Rattus norvegicus [2]) was 64.25 s.

Compound `C/C(=N\NC(=O)Nc1ccccc1Oc1ccccc1)c1ccc(C)cc1` has a Time (Rattus norvegicus [1]) of 405.42 s and a Time (Rattus norvegicus [2]) of 71.42 s.

`C/C(=N\NC(=O)Nc1ccccc1Oc1ccccc1)c1ccccc1O` gave a Time (Rattus norvegicus [1]) of 532.4 s and a Time (Rattus norvegicus [2]) of 33.2 s.

Compound `CSc1ccc(/C(C)=N/NC(=O)Nc2ccccc2Oc2ccccc2)cc1` has a Time (Rattus norvegicus [1]) of 189.4 s and a Time (Rattus norvegicus [2]) of 75 s.

`COc1ccc(OC)c(/C(C)=N/NC(=O)Nc2ccccc2Oc2ccccc2)c1` was tested, and the Time (Rattus norvegicus [1]) was 110 s and the Time (Rattus norvegicus [2]) was 69.16 s.

Work on `O=C(N/N=C/c1ccccc1)Nc1ccccc1Oc1ccccc1` yielded a Time (Rattus norvegicus [1]) of 508.5 s and a Time (Rattus norvegicus [2]) of 48.5 s.

For `O=C(N/N=C/c1cccc(Br)c1)Nc1ccccc1Oc1ccccc1`, the Time (Rattus norvegicus [1]) was 229.33 s and the Time (Rattus norvegicus [2]) was 81 s.

With `O=C(N/N=C/c1ccccc1[N+](=O)[O-])Nc1ccccc1Oc1ccccc1` the Time (Rattus norvegicus [1]) was 858.66 s and the Time (Rattus norvegicus [2]) was 36.5 s.

With `O=C(N/N=C/c1cccc([N+](=O)[O-])c1)Nc1ccccc1Oc1ccccc1` the Time (Rattus norvegicus [1]) was 636.2 s and the Time (Rattus norvegicus [2]) was 40.2 s.

`O=C(N/N=C/c1ccc([N+](=O)[O-])cc1)Nc1ccccc1Oc1ccccc1` gave a Time (Rattus norvegicus [1]) of 293.75 s and a Time (Rattus norvegicus [2]) of 79.75 s.

With `Cc1ccc(/C=N/NC(=O)Nc2ccccc2Oc2ccccc2)cc1` the Time (Rattus norvegicus [1]) was 418.71 s and the Time (Rattus norvegicus [2]) was 59.28 s.

`O=C(N/N=C/c1ccccn1)Nc1ccccc1Oc1ccccc1` was tested, and the Time (Rattus norvegicus [1]) was 1161.6 s, the Activity (Rattus norvegicus [3]) was “Non-toxic” and the Time (Rattus norvegicus [2]) was 23 s.

For `O=C(N/N=C/c1cccnc1)Nc1ccccc1Oc1ccccc1`, the Time (Rattus norvegicus [1]) was 903 s and the Time (Rattus norvegicus [2]) was 40.4 s.

With `O=C(N/N=C/c1ccncc1)Nc1ccccc1Oc1ccccc1` the Time (Rattus norvegicus [1]) was 969.83 s, the Activity (Rattus norvegicus [3]) was “Non-toxic” and the Time (Rattus norvegicus [2]) was 31.16 s.

`CSc1ccc(/C=N/NC(=O)Nc2ccccc2Oc2ccccc2)cc1` gave a Time (Rattus norvegicus [1]) of 244.75 s and a Time (Rattus norvegicus [2]) of 66.5 s.

In the case of `COc1ccc(OC)c(/C=N/NC(=O)Nc2ccccc2Oc2ccccc2)c1`, the Time (Rattus norvegicus [1]) is reported as 150.16 s and the Time (Rattus norvegicus [2]) is reported as 54.83 s.

In the case of `C/C(=N\NC(=O)Nc1ccccc1Oc1ccccc1)c1ccccc1`, the Time (Rattus norvegicus [1]) is reported as 293.75 s and the Time (Rattus norvegicus [2]) is reported as 48.75 s.

Compound `C/C(=N\NC(=O)Nc1ccccc1Oc1ccccc1)c1cccc(Br)c1` has a Time (Rattus norvegicus [1]) of 209.66 s and a Time (Rattus norvegicus [2]) of 85.33 s.

With `CCCC(CCC)C(=O)[O-].[Na+]` [VALPROATE SODIUM] the Time (Rattus norvegicus [4]) was 26.5 s, the Time (Rattus norvegicus [5]) was 40 s and the Time (Rattus norvegicus [6]) was 817.42 s. It also gave a Time (Rattus norvegicus [7]) of 900.62 s.
